The values that follow are results of earlier work, collected in patent US9913492B1, “Yolatile liquid inhaler and method of manufacture” (priority 2010, dated 2018).

One may read the LD50 as the dose at which mortality reaches 50%.

The subject of data set [1] is adult human beings.
Data set [2] has as its system mice.
The conditions of data set [3]: at 25 degrees C.
Data set [4] concerns rats.

For `COC(=O)[C@H]1[C@@H](OC(=O)c2ccccc2)C[C@@H]2CC[C@H]1N2C` [cocaine], the lethal dose in data set [1] (comparison with nicotine) is recorded as 1000 mg.

Consider `CN1CCCC1c1cccnc1` (centres unmarked) [nicotine], for which the LD50 in data set [2] is 3 mg/kg; in data set [4], 50 mg/kg. The vapor pressure in data set [3] is given as 0.53 MBR. In addition, the lethal dosage in data set [1] (adult human beings) was 40 to 60 mg.
